From patent US5094945A, “Inhibition resistant 5-enolpyruvyl-3-phosphoshikimate synthase, production and use” (priority 1988, dated 1992)

Assays:
[1] = target: T1, 5-enolpyruvyl-3-phosphoshikimate synthase from wild type strain STK1 (Salmonella typhimurium, UniProt P07637); experiment: ES-3-P synthase assay (release of inorganic phosphate), enzyme preparation of wild type strain STK1; format: biochemical, S. typhimurium
T1 construct: endogenous in cells; host or cells: S. typhimurium strain STK1, French press homogenate, protamine sulfate precipitate
T1 sequence (P07637 whole entry): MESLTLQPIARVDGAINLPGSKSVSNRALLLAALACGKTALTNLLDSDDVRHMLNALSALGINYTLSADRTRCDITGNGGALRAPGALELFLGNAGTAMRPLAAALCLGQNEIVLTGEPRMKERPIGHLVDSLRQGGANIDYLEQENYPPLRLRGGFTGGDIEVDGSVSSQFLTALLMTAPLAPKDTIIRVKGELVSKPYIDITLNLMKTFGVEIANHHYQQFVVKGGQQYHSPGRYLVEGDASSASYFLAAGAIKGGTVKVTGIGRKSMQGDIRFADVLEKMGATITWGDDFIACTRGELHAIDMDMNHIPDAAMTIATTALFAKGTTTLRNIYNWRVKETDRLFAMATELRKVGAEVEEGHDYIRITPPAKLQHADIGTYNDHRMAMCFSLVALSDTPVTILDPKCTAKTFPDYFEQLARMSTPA
Method: (§1) S. typhimurium strains CT7 and STK1 were grown with aeration for 24 hours at 37° C. in M9 broth. Cells were harvested by centrifugation at 4° C., washed twice with M9 salts, resuspended in 0.01 M Tris-HC1 (pH8.2) and sheared with a French press at 20,000 psi. The homogenate was centrifuged at 16,000 g for 40 min and the supernatant treated with 2% protamine sulfate (1.0 ml of 2% protamine sulfate for every 35 mg of protein). The precipitate was removed by centrifugation at 18,000 xg for 35 min, resuspended and used for enzyme assays. Activity of the enzyme was determined by measuring the rate of release of inorganic phosphate (Heinonen and Lahti, Anal. Biochem. (1981) 113:313-317).
(§2) A typical assay mixture contained 150 μmole maleic acid buffer (pH5.6), 2.88 μmole phosphoenolpyruvate, 4.08 μmole 3-phosphoshikimate and the enzyme fraction in a total volume of 1.5 ml. The reaction was started by addition of the enzyme after pre-incubation of the assay mixture at 37° C. for 5 min. Aliquots were taken at timed intervals and mixed immediately with the reagents for phosphate analysis. The low pH of the reagent (1.25 N H2 SO4) terminated enzyme activity.
(§3) Resistance to glyphosate mediated by a mutation(s) at the aroA locus could result from altered regulation leading to overproduction of 5-enolpyruvyl-3phosphoshikimate synthase or to a structural alteration of the enzyme. To distinguish between these two hypotheses in vitro enzyme preparations were assayed from Salmonella strains STK1 and CT7 which are the wild type and mutant strain respectively. 5-Enolpyruvyl-3-phosphoshikimate synthase activities from wild type and glyphosate-resistant mutants differed by Km for 3-phosphoshikimate, Kd for glyphosate, and at high concentration of 3-phosphoshikimate, by specific activity.

[2] = target: T2, 5-enolpyruvyl-3-phosphoshikimate synthase from glyphosate-resistant mutant CT7 (Salmonella typhimurium, UniProt P07637, P101S); experiment: ES-3-P synthase assay (release of inorganic phosphate), enzyme preparation of glyphosate-resistant mutant CT7; format: biochemical, S. typhimurium
T2 construct: endogenous in cells; host or cells: S. typhimurium strain CT7, French press homogenate, protamine sulfate precipitate
T2 sequence (P07637 whole entry P101S): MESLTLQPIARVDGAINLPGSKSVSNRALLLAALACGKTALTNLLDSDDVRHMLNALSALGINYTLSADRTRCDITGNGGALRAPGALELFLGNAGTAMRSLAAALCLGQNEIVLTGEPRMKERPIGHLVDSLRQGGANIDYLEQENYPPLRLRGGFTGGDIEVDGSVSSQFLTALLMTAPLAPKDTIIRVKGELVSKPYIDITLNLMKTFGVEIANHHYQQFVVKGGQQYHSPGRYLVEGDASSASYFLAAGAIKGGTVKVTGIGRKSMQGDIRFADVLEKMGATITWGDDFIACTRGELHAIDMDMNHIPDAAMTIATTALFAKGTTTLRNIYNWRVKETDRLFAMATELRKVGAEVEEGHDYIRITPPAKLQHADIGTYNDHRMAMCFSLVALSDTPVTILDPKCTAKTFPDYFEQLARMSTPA
Method: as §1, §2
(§4) Resistance to glyphosate mediated by a mutation(s) at the aroA locus could result from altered regulation leading to overproduction of 5-enolpyruvyl-3phosphoshikimate synthase or to a structural alteration of the enzyme. […]

[3] = target: T3, EPSP synthase purified from wild type S. typhimurium (Salmonella typhimurium, UniProt P07637); experiment: Fluorimetric EPSP synthase assay, forward direction, purified wild type enzyme; format: biochemical; details: pH 7.0, 500 μM shik 3-P, read-out: Ki for glyphosate
T3 construct: ES-3-P synthase purified from wild-type S. typhimurium; endogenous in cells; host or cells: wild-type S. typhimurium (purified)
T3 sequence (P07637 whole entry): as the sequence (P07637 whole entry) above
Method: (§5) In the next study, a comparison of the kinetic parameters at pH 7.0 of ES-3-P synthase purified from wild-type S. typhimurium and from the mutant glyphosate-resistant strain was made. Enzyme activity was assayed fluorometrically in the forward direction as described by Boocock and Coggins, FEBS Letters (1983) 154:127-133.

[4] = target: T4, EPSP synthase purified from the mutant glyphosate-resistant strain (Salmonella typhimurium, UniProt P07637, P101S); experiment: Fluorimetric EPSP synthase assay, forward direction, purified mutant enzyme; format: biochemical, S. typhimurium
T4 construct: ES-3-P synthase purified from wild-type S. typhimurium and from the mutant glyphosate-resistant strain; endogenous in cells; host or cells: mutant glyphosate-resistant S. typhimurium strain (purified)
T4 sequence (P07637 whole entry P101S): as the sequence (P07637 whole entry P101S) above
Method: as §5

[5] = target: T5, EPSP synthase from the glyphosate-resistant strain of S. typhimurium (Salmonella typhimurium, UniProt P07637, P101S); experiment: EPSP synthase activity with inhibitor, bacterial mutant enzyme; format: biochemical; details: pH 7, read-out: EPSP Synthase Activity, % control
T5 construct: EPSP synthase activities from the glyphosate-resistant strain of S. typhimurium; endogenous in cells; host or cells: glyphosate-resistant strain of S. typhimurium
T5 sequence (P07637 whole entry P101S): as above
Method: (§6) In the next study, the effect of glyphosate and antiserum to bacterial EPSP synthase on EPSP synthase activities from the glyphosate-resistant strain of S. typhimurium, from the wild-type turnip gall and from ocs-aroA turnip gall was studied. Enzyme activity was assayed fluorometrically in the forward direction as described by Boocock and Coggins, supra.

[6] = test system: EPSP synthase from wild type turnip gall; experiment: EPSP synthase activity with inhibitor, wild type turnip gall extract; format: biochemical; details: pH 7.0, PEP 500 μM, shik 3P 500 μM
Method: as §6

[7] = test system: EPSP synthase from ocs-aroA transformed turnip gall; experiment: EPSP synthase activity with inhibitor, ocs-aroA transformed turnip gall extract; format: biochemical; details: pH 7.0, PEP 500 μM, shik 3P 500 μM
Method: as §6

[8] = test system: S. typhimurium strain TA831; experiment: Colony formation on solid M9 medium with glyphosate; format: cell-based; details: Salmonella enterica, read-out: glyphosate concentration at which no colonies form
Method: (§7) Glyphosate was added to M9 after autoclaving. For selection experiments, a commercial solution of glyphosate was used. Resistant mutants were isolated by plating bacterial suspensions in M9 broth or on M9 solid medium supplemented with varying amounts of glyphosate. The level of resistance achieved by the mutants was scored by three types of tests: a spot test, consisting of toothpicking a small colony from a non-selective to a selective medium; a streak test, consisting of streaking cells on a selective plate to obtain single colonies; and growth curves, to determine the kinetics of growth in liquid medium supplemented with glyphosate.

[9] = test system: S. typhimurium strain CTF3; experiment: Spot test for glyphosate resistance; format: cell-based
Method: as §7

[10] = test system: S. typhimurium Pmg^r mutants (fifteen mutants, incl. CT7); experiment: Streak test on M9 medium with glyphosate; format: cell-based; details: streaked on M9 medium
Method: as §7

S. typhimurium STK1 = experiment: Growth in minimal medium supplemented with glyphosate, wild type; format: cell-based; details: Salmonella enterica, minimal medium with 70 μg/ml glyphosate
Method: as §7
(§8) The above assays were performed on enzyme preparations obtained from cells grown in minimal medium. To determine whether the enzyme of the glyphosate resistance mutant was differentially regulated during glyphosate induced stress, STK1, the wild type, and CT7 the mutant, were grown in minimal medium supplemented, respectively, with 70 μg/ml and 1000 μg/ml of glyphosate. These conditions give approximately 20-30% growth inhibition. The specific activity of preparations from cells grown in the presence of glyphosate was 10% higher than that found in preparations from cells grown without glyphosate.

S. typhimurium CT7 = experiment: Growth in minimal medium supplemented with glyphosate, mutant; format: cell-based; details: Salmonella enterica, read-out: growth inhibition
Method: as §7, §8

wild type E. coli = experiment: Growth kinetics with glyphosate, wild type E. coli; format: cell-based
Method: as §7
(§9) The growth kinetics of both S. typhimurium and E. coli strains with wild type and mutant aroA locus were investigated.

[11] = test system: aroA E. coli strain LC3 harboring pPMG1; experiment: Growth kinetics with glyphosate, LC3 harboring pPMG1; format: cell-based; details: 2 μg/ml of glyphosate
Method: as §7, §9

[12] = test system: aroA E. coli strains with pPMG11; experiment: Glyphosate resistance of aroA E. coli carrying pPMG11; format: cell-based; details: 5.5 Kb BglII/HindIII Salmonella DNA segment (pPMG11)
Method: as §7
To subclone the aroA-Pmg^r gene, plasmid pPMG1 was digested with the restriction endonuclease BglII. […] Plasmid pPMG1 was digested to completion with BglII, ligated in vitro and the DNA transformed into strain LC2 selecting for aroA complementation. Clones were screened and plasmids containing the 10 Kb BglII fragment in both orientations relative to the vector pVK100 were identified. Plasmids pPMG5 and pPMG6 complemented aroA E. coli strains and conferred high levels of glyphosate resistance. Further subcloning was accomplished by digesting plasmid pPMG5 with BglII and HindIII and ligating in vitro. Strain LC2 was transformed and colonies which were aroA+ and kanamycin sensitive were selected. […] This plasmid was designated pPMG11.

[13] = test system: O=C(O)C1=C[C@@H](OP(=O)(O)O)[C@@H](O)[C@H](O)C1; experiment: ES-3-P synthase assay (release of inorganic phosphate), enzyme preparation of glyphosate-resistant mutant CT7; format: biochemical, S. typhimurium; details: other: CT7 mutant enzyme preparation; phosphoenolpyruvate 2.5 × 10^-1 M; 37.0 °C
Method: as §1, §2, §4

[14] = test system: O=C(O)C1=C[C@@H](OP(=O)(O)O)[C@@H](O)[C@H](O)C1; experiment: ES-3-P synthase assay (release of inorganic phosphate), enzyme preparation of wild type strain STK1; format: biochemical, S. typhimurium; details: other: STK1 wild type enzyme preparation; phosphoenolpyruvate 2.5 × 10^-1 M; 37.0 °C
Method: as §1, §2, §3

C=C(OP(=O)(O)O)C(=O)O [15] = experiment: Fluorimetric EPSP synthase assay, forward direction, purified wild type enzyme; format: biochemical, S. typhimurium; details: other: wild type, pH 7.0, 500 μM shik 3-P
Method: as §5

[16] = test system: O=C(O)C1=C[C@@H](OP(=O)(O)O)[C@@H](O)[C@H](O)C1; experiment: as above; format: biochemical, S. typhimurium; details: other: wild type, pH 7.0, 500 μM PEP
Method: as §5

C=C(OP(=O)(O)O)C(=O)O [17] = experiment: Fluorimetric EPSP synthase assay, forward direction, purified mutant enzyme; format: biochemical, S. typhimurium; details: other: mutant, pH 7.0, 500 μM shik 3-P
Method: as §5

[18] = test system: O=C(O)C1=C[C@@H](OP(=O)(O)O)[C@@H](O)[C@H](O)C1; experiment: as above; format: biochemical, S. typhimurium; details: other: mutant, pH 7.0, 500 μM PEP
Method: as §5

O=C(O)CNCP(=O)(O)O [glyphosate, N-phosphonomethyl glycine]
activation at 70 µg/mL ([1]; STK1 grown with 70 μg/ml glyphosate, read-out: increase of ES-3-P synthase specific activity, cells grown with vs without glyphosate): 10%
Kd ([1]; STK1 wild type enzyme preparation, read-out: Kd glyphosate): 22 µM
Kd [2]: 190 µM
Ki [3]: 1.5 µM
Ki [4]: 5 µM
remaining activity at 100 µM [5]: 35%
remaining activity at 500 µM [5]: 9%
EPSP Synthase Activity, % control ([6]; glyphosate 100 μM): 8 % control
EPSP Synthase Activity, % control ([6]; glyphosate 500 μM): 2 % control
EPSP Synthase Activity, % control ([7]; glyphosate 100 μM): 29 % control
EPSP Synthase Activity, % control ([7]; glyphosate 500 μM): 9 % control
MIC [8]: > 200 µg/mL
glyphosate concentration to which the strain was resistant [9]: 350 µg/mL
glyphosate concentration on which colonies formed in 48 hours [10]: 2 mg/mL
inhibition at 70 µg/mL (S. typhimurium STK1): 20 to 30%
inhibition at 1000 µg/mL (S. typhimurium CT7): 20 to 30%
inhibition at 100 µg/mL (wild type E. coli; Escherichia coli, 100 μg/ml glyphosate, read-out: inhibition of growth rate): 40%
growth (wild type E. coli; one mg/ml glyphosate): no growth was observed
growth inhibition [11]: not significantly inhibited
level of glyphosate resistance conferred [12]: approx. 2 mg/ml

5-enolpyruvyl-3-phosphoshikimate synthase from glyphosate-resistant mutant CT7 (Salmonella enterica subsp. enterica serovar Typhimurium str. LT2; P101S)
Km [13]: 2800 µM

5-enolpyruvyl-3-phosphoshikimate synthase from wild type strain STK1 (Salmonella enterica subsp. enterica serovar Typhimurium str. LT2)
Km [14]: 340 µM

EPSP synthase purified from wild type S. typhimurium (Salmonella enterica subsp. enterica serovar Typhimurium str. LT2)
Km (C=C(OP(=O)(O)O)C(=O)O [15]): 30 µM
Km [16]: 2.6 µM

EPSP synthase purified from the mutant glyphosate-resistant strain (Salmonella enterica subsp. enterica serovar Typhimurium str. LT2; P101S)
Km (C=C(OP(=O)(O)O)C(=O)O [17]): 22 µM
Km [18]: 1.6 µM
